Counter-ions that a name gives are not always drawn. ± gives the uncertainty stated by the source.
How the values were obtained:
[1] = system: Klebsiella pneumoniae ATCC 13882; experiment: onset of ureolytic pH increase; higher = more delayed ureolysis (inhibition)
Protocol: (§1)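 Klebsiella pneumoniae ATCC 13882 (start OD600 0.05) grown in M9U medium with 40 mM urea and phenol red plus inhibitor, in triplicate in 96-well plates. A557 and OD630 were read every 15 min for 24 h. Ureolysis was followed as the pH-related A557-A630: onset time, Gompertz-fit rate and final value. Growth was followed as OD630.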

[2] = system: Klebsiella pneumoniae ATCC 13882; experiment: final OD630 (growth) after 24 h; higher = more bacterial growth; extreme values may be limits of the assay
Protocol: as §1

[3] = system: Klebsiella pneumoniae ATCC 13882; experiment: final pH-related absorbance (A557-A630) after 24 h (absorbance units); higher = more ureolysis; extreme values may be limits of the assay
Protocol: as §1

[4] = system: Klebsiella pneumoniae ATCC 13882; experiment: rate of pH (A557-A630) increase, Gompertz fit (10^-4 s-1); higher = faster ureolysis; extreme values may be limits of the assay
Protocol: as §1

CC(=O)NC(N)=S [Acetylthiourea]
onset of ureolytic pH increase ([1]; 0.05 mM): 7.13 ± 0.148 h
onset of ureolytic pH increase ([1]; 0.5 mM): 7.095 ± 0.065 h
onset of ureolytic pH increase ([1]; 5 mM): 6.92 ± 0.267 h
final OD630 ([2]; 0.05 mM): 0.491 ± 0.011
final OD630 ([2]; 0.5 mM): 0.491 ± 0.004
final OD630 ([2]; 5 mM): 0.507 ± 0.021
final pH-related absorbance ([3]; 0.05 mM): 0.241 ± 0.011
final pH-related absorbance ([3]; 0.5 mM): 0.246 ± 0.002
final pH-related absorbance ([3]; 5 mM): 0.284 ± 0.05
rate of pH ([4]; 0.05 mM): 2 ± 0.057
rate of pH ([4]; 0.5 mM): 2.03 ± 0.042
rate of pH ([4]; 5 mM): 2.62 ± 0.37

O=[N+]([O-])[O-].[Ag+] [AgNO3]
onset of ureolytic pH increase ([1]; 0.1 mM): > 25 h
onset of ureolytic pH increase ([1]; 1 mM): > 25 h
onset of ureolytic pH increase ([1]; 10 mM): > 25 h
final OD630 ([2]; 0.1 mM): 0
final OD630 ([2]; 1 mM): 0
final OD630 ([2]; 10 mM): 0
final pH-related absorbance ([3]; 0.1 mM): 0
final pH-related absorbance ([3]; 1 mM): 0
final pH-related absorbance ([3]; 10 mM): 0
rate of pH ([4]; 0.1 mM): 0
rate of pH ([4]; 1 mM): 0
rate of pH ([4]; 10 mM): 0

NC(=O)NC1NC(=O)NC1=O (stereo not drawn) [Allantoin]
onset of ureolytic pH increase ([1]; 0.033 mM): 9.624 ± 0.085 h
onset of ureolytic pH increase ([1]; 0.33 mM): 9.619 ± 0.0733 h
onset of ureolytic pH increase ([1]; 3.33 mM): 10 ± 0.117 h
final OD630 ([2]; 0.033 mM): 0.525 ± 0.0093
final OD630 ([2]; 0.33 mM): 0.507 ± 0.0058
final OD630 ([2]; 3.33 mM): 0.495 ± 0.0081
final pH-related absorbance ([3]; 0.033 mM): 0.231 ± 0.0095
final pH-related absorbance ([3]; 0.33 mM): 0.216 ± 0.003
final pH-related absorbance ([3]; 3.33 mM): 0.222 ± 0.0053
rate of pH ([4]; 0.033 mM): 1.66 ± 0.032
rate of pH ([4]; 0.33 mM): 1.718 ± 0.017
rate of pH ([4]; 3.33 mM): 1.68 ± 0.02

C=CCNC(N)=S [Allylthiourea]
onset of ureolytic pH increase ([1]; 0.1 mM): 9.392 ± 0.0683 h
onset of ureolytic pH increase ([1]; 1 mM): 9.93 ± 0.483 h
onset of ureolytic pH increase ([1]; 10 mM): 12.93 ± 0.123 h
final OD630 ([2]; 0.1 mM): 0.417 ± 0.013
final OD630 ([2]; 1 mM): 0.397 ± 0.015
final OD630 ([2]; 10 mM): 0.366 ± 0.0047
final pH-related absorbance ([3]; 0.1 mM): 0.159 ± 0.0052
final pH-related absorbance ([3]; 1 mM): 0.154 ± 0.0052
final pH-related absorbance ([3]; 10 mM): 0.135 ± 0.0034
rate of pH ([4]; 0.1 mM): 1.47 ± 0.046
rate of pH ([4]; 1 mM): 1.454 ± 0.0015
rate of pH ([4]; 10 mM): 1.383 ± 0.0037

OB(O)O [Boric acid]
onset of ureolytic pH increase ([1]; 0.1 mM): 9.85 ± 0.103 h
onset of ureolytic pH increase ([1]; 1 mM): 10.3 ± 0.567 h
onset of ureolytic pH increase ([1]; 10 mM): > 15 h
final OD630 ([2]; 0.1 mM): 0.437 ± 0.0082
final OD630 ([2]; 1 mM): 0.432 ± 0.0018
final OD630 ([2]; 10 mM): 0.297 ± 0.0064
final pH-related absorbance ([3]; 0.1 mM): 0.409 ± 0.0087
final pH-related absorbance ([3]; 1 mM): 0.418 ± 0.018
final pH-related absorbance ([3]; 10 mM): 0
rate of pH ([4]; 0.1 mM): 1.62 ± 0.03
rate of pH ([4]; 1 mM): 1.48 ± 0.2
rate of pH ([4]; 10 mM): 0

S=C=S [Carbon disulfide]
onset of ureolytic pH increase ([1]; 0.0285 mM): 10.26 ± 0.0115 h
onset of ureolytic pH increase ([1]; 0.285 mM): 10.2 ± 0.0433 h
onset of ureolytic pH increase ([1]; 2.85 mM): 10.24 ± 0.07 h
final OD630 ([2]; 0.0285 mM): 0.416 ± 0.0039
final OD630 ([2]; 0.285 mM): 0.428 ± 0.0051
final OD630 ([2]; 2.85 mM): 0.419 ± 0.0062
final pH-related absorbance ([3]; 0.0285 mM): 0.169 ± 0.0022
final pH-related absorbance ([3]; 0.285 mM): 0.175 ± 0.0006
final pH-related absorbance ([3]; 2.85 mM): 0.175 ± 0.0058
rate of pH ([4]; 0.0285 mM): 1.547 ± 0.011
rate of pH ([4]; 0.285 mM): 1.537 ± 0.0055
rate of pH ([4]; 2.85 mM): 1.561 ± 0.0093

CN(CC(=O)O)C(=N)N [Creatine monohydrate]
onset of ureolytic pH increase ([1]; 0.0026 mM): 9.537 ± 0.0367 h
onset of ureolytic pH increase ([1]; 0.026 mM): 9.59 ± 0.147 h
onset of ureolytic pH increase ([1]; 0.26 mM): 9.419 ± 0.0783 h
final OD630 ([2]; 0.0026 mM): 0.503 ± 0.012
final OD630 ([2]; 0.026 mM): 0.496 ± 0.0032
final OD630 ([2]; 0.26 mM): 0.497 ± 0.0049
final pH-related absorbance ([3]; 0.0026 mM): 0.217 ± 0.0008
final pH-related absorbance ([3]; 0.026 mM): 0.22 ± 0.0025
final pH-related absorbance ([3]; 0.26 mM): 0.22 ± 0.0028
rate of pH ([4]; 0.0026 mM): 1.73 ± 0.023
rate of pH ([4]; 0.026 mM): 1.73 ± 0.059
rate of pH ([4]; 0.26 mM): 1.78 ± 0.032

CN1CC(=O)NC1=N [Creatinine]
onset of ureolytic pH increase ([1]; 0.1 mM): 9.588 ± 0.07 h
onset of ureolytic pH increase ([1]; 1 mM): 9.675 ± 0.0283 h
onset of ureolytic pH increase ([1]; 10 mM): 9.58 ± 0.14 h
final OD630 ([2]; 0.1 mM): 0.505 ± 0.0042
final OD630 ([2]; 1 mM): 0.495 ± 0.013
final OD630 ([2]; 10 mM): 0.517 ± 0.0028
final pH-related absorbance ([3]; 0.1 mM): 0.146 ± 0.0004
final pH-related absorbance ([3]; 1 mM): 0.158 ± 0.0061
final pH-related absorbance ([3]; 10 mM): 0.157 ± 0.005
rate of pH ([4]; 0.1 mM): 2.186 ± 0.011
rate of pH ([4]; 1 mM): 2.17 ± 0.023
rate of pH ([4]; 10 mM): 2.19 ± 0.038

NCCS [Cysteamine hydrochloride]
onset of ureolytic pH increase ([1]; 0.1 mM): 8.51 ± 0.103 h
onset of ureolytic pH increase ([1]; 1 mM): 10.12 ± 0.02 h
onset of ureolytic pH increase ([1]; 10 mM): 15.19 ± 0.0183 h
final OD630 ([2]; 0.1 mM): 0.5 ± 0.0053
final OD630 ([2]; 1 mM): 0.487 ± 0.0016
final OD630 ([2]; 10 mM): 0.447 ± 0.0027
final pH-related absorbance ([3]; 0.1 mM): 0.256 ± 0.0053
final pH-related absorbance ([3]; 1 mM): 0.246 ± 0.0058
final pH-related absorbance ([3]; 10 mM): 0.097 ± 0.0002
rate of pH ([4]; 0.1 mM): 1.44 ± 0.07
rate of pH ([4]; 1 mM): 0.893 ± 0.012
rate of pH ([4]; 10 mM): 0.736 ± 0.0043

O=C(O)CN(CCN(CC(=O)O)CC(=O)O)CCN(CC(=O)O)CC(=O)O [Diethylenetriaminepentaacetic acid]
onset of ureolytic pH increase ([1]; 0.004 mM): 9.47 ± 0.183 h
onset of ureolytic pH increase ([1]; 0.036 mM): > 15 h
onset of ureolytic pH increase ([1]; 0.364 mM): > 15 h
final OD630 ([2]; 0.004 mM): 0.439 ± 0.001
final OD630 ([2]; 0.036 mM): 0.311 ± 0.003
final OD630 ([2]; 0.364 mM): 0.21 ± 0.005
final pH-related absorbance ([3]; 0.004 mM): 0.196 ± 0.016
final pH-related absorbance ([3]; 0.036 mM): 0
final pH-related absorbance ([3]; 0.364 mM): 0
rate of pH ([4]; 0.004 mM): 2.08 ± 0.049
rate of pH ([4]; 0.036 mM): 0
rate of pH ([4]; 0.364 mM): 0

NCCNCCNCCN [Triethylenetetraamine]
final OD630 ([2]; 0.1 mM): 0.448 ± 0.091
final OD630 ([2]; 1 mM): 0.384 ± 0.017
final OD630 ([2]; 10 mM): 0

Reference: the supplement of paper PMC7244745
